Reference: patent US9440914B2, “Method for treating glioblastomas and other tumors” (THE FEINSTEIN INSTITUTE FOR MEDICAL RESEARCH, priority 2013, dated 2016)

Assays:
[1] = tested on: ES cells (SK-NEP1); assay: proliferation assay of ES cells co-cultured with polarized macrophages; type: cell-based, human; details: co-culture with polarized macrophages
Experimental: In vivo, human ES cells (SK-NEP1) were surgically implanted into the left kidney of athymic mice. Mice were treated for 7 weeks with CNI-1493 or vehicle. Lung parenchyma was assessed for metastases utilizing both H&E and immunohistochemistry for the ES-specific CD99 and endothelial-specific CD31 markers. In vitro, primary macrophages isolated from human blood were polarized to M1 or M2 phenotypes by exposure to GM-CSF or M-CSF and activated with IFN-γ and LPS or IL-4. Cells were co-cultured with polarized macrophages and underwent proliferation and invasion assays in the presence or absence of CNI-1493.

[2] = tested on: GL261 murine glioblastoma cells co-cultured with microglia; assay: 3-dimensional microglia-glioblastoma co-culture transwell invasion assay (microglia-stimulated GL261 invasion); type: cell-based; details: 3:1 glioblastoma cells to microglia, BME, no serum, 48 h; read-out: IC50 for interference with microglia-stimulated GL261 invasion
Experimental: Invasion Assays: Glioblastoma and microglial cells were labelled with cell tracker green CMFDA and with cell tracker red CMTPX, respectively, and then embedded in 50 μL of 10 mg/mL basement membrane extract (BME) (Trevigen). The mixture was then placed in a transwell insert (previously coated with 1 μg/mL fibronectin on the bottom side of the 8 μm filter to maintain adhesion of the cells that invaded through the filter) and allowed to polymerize for 30 min at 37° C. Subsequently, serum free medium was added to both wells. To maintain constant cell numbers, cells were plated at a density per invasion chamber of 15×10^4 GL261 cells and 5×10^4 microglia cells in MSFM. Semapimod or its diluent was added at varying concentrations into the BME and in the media above and below the transwell. Invasion chambers were incubated for 48 h and subsequently fixed in 3.7% formaldehyde in phosphate-buffered saline (PBS). The gel in the transwell inserts was carefully removed. Invaded glioblastoma cells were imaged with a Zeiss Axiovision inverted microscope and a 10× objective. All invaded cells were counted.
To determine the effect of microglia on the invasive properties of glioblastoma cells, a novel 3-dimensional microglia-glioblastoma co-culture assay was designed that provides a better approximation of the in vivo setting than a 2-dimensional configuration. […]

[3] = tested on: GL261 cells with microglia; assay: concentration dependence on microglia-stimulated invasion of glioma cells (24-well transwell); type: cell-based; details: GL261 3×10^5, microglia 1.5×10^5, 48 h
Experimental: FIG. 11. […] GL261 cells (3×10^5) and microglia (1.5×10^5) were embedded in 50 μl of basement membrane extract in the presence of the indicated concentrations of semapimod (SMP) and CP1213, layered in a 24-well transwell and incubated for 48 h. The number of invading GL261 cells was determined. Data shown represent the average+/−SD of between 2 and 5 independent experiments, each performed in duplicate.
The concentration dependence of the inhibitory effect of semapimod or CP1213 was investigated on microglia-stimulated invasion of glioma cells. GL261 cells (3×10^5) and microglia (1.5×10^5) were embedded in 50 μl of basement membrane extract in the presence of the indicated concentrations of semapimod (SMP) and CP1213, layered in a 24-well transwell and incubated for 48 h. The number of invading GL261 cells was determined. Data are shown in FIG. 11 and represent the average+/−SD of between 2 and 5 independent experiments, each performed in duplicate. The data support a method of treating a glioma, by inhibiting microglia-stimulated invasion processes with guanylhydrazones.

[4] = phase II clinical trial for Crohn's disease; cited from earlier work
[5] = tested on: GL261 cells; assay: proliferation assay of GL261 co-cultured with microglia (SRB); type: cell-based, murine; details: 200 nM, 3 days
Experimental: Proliferation Assay: 50,000 GL261 cells were cultured overnight in the absence or presence or microglia (50,000 or 150,000) in serum-containing medium and subsequently cultured in the presence or absence of 200 nM semapimod in a 6-well dish in serum-free conditions. Microglia were added in a ratio of 1:1 or 1:3 GL261:microglia. After 72 h of incubation, plates were washed in PBS and fixed in 3.7% formaldehyde in PBS. In initial experiments, the microglia were stained with tomato lectin for 45 mins and stained all nuclei with DAPI. Ten fluorescence micrographs of each culture were taken with a Zeiss Axiovert-based imaging system. […] Therefore in subsequent experiments the cells were stained with SRB as described for the colony formation assay. After drying, the plates were de-stained with 500 μL of 10 mM Tris base (Sigma). Eluted SRB was measured by absorbance at 490 nm.

[6] = tested on: GL261 cells; assay: colony formation assay of GL261 with or without microglia and irradiation; type: cell-based, murine; details: 200 nM; for effect on microglia-stimulated GL261 survival (colony formation): co-culture with microglia
Experimental: Colony Formation Assay: G1261 cells and microglia were labeled as described for the invasion assay and were co-cultured in serum overnight and then changed to serum free medium for 48 h in the absence of serum at a 1:1 ratio at a density of 5×10^5 per well of a 6-well plate in the presence or absence of 200 nM semapimod. Subsequently, cells were subjected to 3 Gy of X-ray irradiation using a Radionics 160 kV irradiator. Two days after irradiation, cells were trypsinized, counted using a fluorescence microscope and 500 GL261 cells were plated in 6 cm dishes containing 10% FBS MSFM medium. Colony formation was allowed to proceed for 12 days, with medium changes every other day. Subsequently, the cells were fixed in 3.7% formaldehyde in PBS and stained with 0.2% (w/v) sulpharhodamine B (SRB) dye in 1% acetic acid for 20 min. The dishes were washed with 1% glacial acetic acid and allowed to dry. Plates were scanned and processed using Photoshop 5 (Adobe). Images were changed to grayscale and background threshold intensity was set. Colonies were counted automatically by Image J (rsbweb.nih.gov/ij/) and the numbers graphed.
Semapimod inhibits microglia-stimulated glioblastoma cell survival: A critical problem of malignant glioblastoma is its strong resistance to ionizing radiation (IR) and other therapeutic modalities (21). The role of microglia in glioblastoma cell survival has not been studied thus far. It was therefore examined whether microglia can enhance the survival of GL216 cells after IR and whether semapimod interferes with this function. GL261 cells were plated either in the presence or absence of microglia with or without semapimod (200 nM) for 2 days, followed by radiation treatment (3 Gy). Two days later, glioblastoma cell viability was assayed using a standard colony formation assay. […] In the presence of radiation, the stimulatory effect of microglia on glioblastoma cell survival is more marked (50%) and this effect is also abolished by semapimod (FIG. 2B).

C/C(=N\NC(=N)N)c1cc(NC(=O)CCCCCCCCC(=O)Nc2cc(/C(C)=N/NC(=N)N)cc(/C(C)=N/NC(=N)N)c2)cc(/C(C)=N/NC(=N)N)c1 [semapimod]
effect on ES cellular proliferation [1]: unaffected | IC50 [2]: < 50 nM | effect on microglia-stimulated invasion of GL261 glioma cells (concentration dependence) [3]: inhibitory effects | tolerability in humans [4]: very well tolerated | effect on microglia-stimulated glioblastoma cell proliferation [5]: does not affect | effect on microglia-stimulated GL261 survival (colony formation) ([6]; 3 Gy radiation): abolished | effect on microglia-stimulated GL261 survival (colony formation) ([6]; absence of radiation): abolishes | effect on survival potential of glioblastoma cell monocultures ([6]; no microglia): does not affect
